Test results taken from PubChem BioAssay AID256 (DTP/NCI, 2004).
Values joined by “and” are separate entries in the source; they are usually repeats but may differ in a detail not shown here. Identical values can stand only once. Inconclusive results and toxic doses are left out. Rule for the calls: active = survival T/C of 150% or more; inactive = T/C below 125% in these data. Non-standard residues stand in square brackets, D forms with d. Residues, ends and D or L forms follow the SMILES beside them. ξ: configuration not given here. *: point of attachment. ξAsp(βξ-Me) = CC(C(=O)O)C(N)C(=O)O; X5 = CC(N*)C1NC(=O)C2CCCCN2C1=O; ξAbu(3ξ-NH2) = CC(N)C(N)C(=O)O; X4 = CCC(C)CCC/C=C/CC(=O)*

System: CD2F1 mice, L1210 leukemia ip, survival T/C
Test: NCI In Vivo Anticancer Drug Screen. Data for tumor model L1210 Leukemia (intraperitoneal) in CD2F1 (CDF1) mice
Conditions: higher = longer survival
Summary of the method: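 Mice carrying a transplanted tumor received test compound or vehicle alone. The value is the measurement in the treated group divided by that in the vehicle-treated control group.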

[1] = endpoint: mean survival time, dose: 50.0 mg/kg/injection, schedule: Q01DX009 (ip), vehicle: saline with Tween-80
[2] = endpoint: mean survival time, dose: 100.0 mg/kg/injection, schedule: Q04DX003 (ip), vehicle: saline with Tween-80
[3] = endpoint: mean survival time, dose: 100.0 mg/kg/injection, schedule: Q01DX009 (ip), vehicle: saline with Tween-80
[4] = endpoint: mean survival time, dose: 200.0 mg/kg/injection, schedule: Q04DX003 (ip), vehicle: saline with Tween-80
[5] = endpoint: mean survival time, dose: 50.0 mg/kg/injection, schedule: Q04DX003 (ip), vehicle: saline with Tween-80
[6] = endpoint: mean survival time, dose: 50.0 mg/kg/injection, schedule: Q01DX009 (ip), vehicle: Klucel (hydroxypropylcellulose) (HPC)
[7] = endpoint: mean survival time, dose: 100.0 mg/kg/injection, schedule: Q01DX009 (ip), vehicle: Klucel (hydroxypropylcellulose) (HPC)
[8] = endpoint: mean survival time, dose: 200.0 mg/kg/injection, schedule: Q01DX009 (ip), vehicle: Klucel (hydroxypropylcellulose) (HPC)

Measured: T/C

COc1cc2c(cc1OC)C(OC)N(C)c1c-2ccc2cc3c(cc12)OCO3 (stereo not drawn)
inactive: endpoint: mean survival time, dose: 3.13 mg/kg/injection, schedule: Q01DX009 (ip), vehicle: water 117 % of control | endpoint: mean survival time, dose: 6.25 mg/kg/injection, schedule: Q01DX009 (ip), vehicle: water 121 % of control | endpoint: mean survival time, dose: 12.5 mg/kg/injection, schedule: Q01DX009 (ip), vehicle: water 123 % of control | endpoint: mean survival time, dose: 25.0 mg/kg/injection, schedule: Q01DX009 (ip), vehicle: water 121 % of control

CCCCCCCCCCCCOC(=O)C[n+]1cccc(C(=O)Nc2ccc(Cl)cc2)c1
inactive: endpoint: mean survival time, dose: 25.0 mg/kg/injection, schedule: Q01DX009 (ip), vehicle: saline with Tween-80 101 % of control | [1] 96 % of control | [2] 103 % of control

O=C(O)CCC(=O)c1ccc(Cl)c(Cl)c1
inactive: [1] 102 % of control | [3] 96 % of control | [2] 98 % of control | [4] 91 % of control

CCCCNC(=O)C1CC2c3cccc4[nH]cc(c34)CC2N(C)C1 (stereo not drawn)
inactive: [5] 88 % of control | [2] 91 % of control

NNS(=O)(=O)c1ccc(Oc2ccc(S(=O)(=O)NN)cc2)cc1
inactive: [6] 101 % of control | [7] 96 % of control | [8] 108 % of control

CCOC(=O)CNC(=O)Sc1ccc(C(C)(C)C)cc1
inactive: endpoint: mean survival time, dose: 12.5 mg/kg/injection, schedule: Q01DX009 (ip), vehicle: Klucel (hydroxypropylcellulose) (HPC) 96 % of control and 105 % of control | endpoint: mean survival time, dose: 25.0 mg/kg/injection, schedule: Q01DX009 (ip), vehicle: Klucel (hydroxypropylcellulose) (HPC) 101 % of control and 105 % of control | [6] 101 % of control and 102 % of control | [7] 100 % of control and 105 % of control | [8] 100 % of control and 103 % of control | endpoint: mean survival time, dose: 400.0 mg/kg/injection, schedule: Q01DX009 (ip), vehicle: Klucel (hydroxypropylcellulose) (HPC) 97 % of control

CC12C3C4C5C3C1(C)C(C42)C51OCCO1 (stereo not drawn)
inactive: endpoint: mean survival time, dose: 12.5 mg/kg/injection, schedule: Q04DX002 (ip), vehicle: saline with Tween-80 100 % of control | endpoint: mean survival time, dose: 25.0 mg/kg/injection, schedule: Q04DX002 (ip), vehicle: saline with Tween-80 100 % of control

CCOC12CC3C4=CCOC5CC(=O)N6c7ccccc7C1(CCN2C4)C6C53 (stereo not drawn)
inactive: endpoint: mean survival time, dose: 5.0 mg/kg/injection, schedule: Q01DX001 (ip), vehicle: saline 98 % of control | endpoint: mean survival time, dose: 10.0 mg/kg/injection, schedule: Q01DX001 (ip), vehicle: saline 101 % of control | endpoint: mean survival time, dose: 20.0 mg/kg/injection, schedule: Q01DX001 (ip), vehicle: saline 95 % of control | endpoint: mean survival time, dose: 40.0 mg/kg/injection, schedule: Q01DX001 (ip), vehicle: saline 97 % of control

c1ccc(-c2ccccc2NC2=NCCO2)cc1
inactive: endpoint: mean survival time, dose: 12.5 mg/kg/injection, schedule: Q04DX003 (ip), vehicle: saline 94 % of control | endpoint: mean survival time, dose: 25.0 mg/kg/injection, schedule: Q04DX003 (ip), vehicle: saline 94 % of control | endpoint: mean survival time, dose: 50.0 mg/kg/injection, schedule: Q04DX003 (ip), vehicle: saline 90 % of control

CN(C)c1ccc(N=Nc2cccnc2)cc1
inactive: endpoint: mean survival time, dose: 100.0 mg/kg/injection, schedule: Q01DX001 (ip), vehicle: saline with Tween-80 97 % of control | endpoint: mean survival time, dose: 200.0 mg/kg/injection, schedule: Q01DX001 (ip), vehicle: saline with Tween-80 97 % of control

O=C(O)c1cc(F)ccc1Cl
inactive: endpoint: mean survival time, dose: 100.0 mg/kg/injection, schedule: Q04DX002 (ip), vehicle: saline with Tween-80 97 % of control | endpoint: mean survival time, dose: 200.0 mg/kg/injection, schedule: Q04DX002 (ip), vehicle: saline with Tween-80 86 % of control

Cc1cc2c(C(C)C)c(O)c(O)c(C=NCCO)c2c(O)c1-c1c(C)cc2c(C(C)C)c(O)c(O)c(C=NCCO)c2c1O
inactive: endpoint: median survival time, dose: 25.0 mg/kg/injection, schedule: Q01DX009 (ip), vehicle: saline with Tween-80 105 % of control | endpoint: median survival time, dose: 50.0 mg/kg/injection, schedule: Q01DX009 (ip), vehicle: saline with Tween-80 97 % of control | endpoint: median survival time, dose: 100.0 mg/kg/injection, schedule: Q01DX009 (ip), vehicle: saline with Tween-80 101 % of control | endpoint: median survival time, dose: 200.0 mg/kg/injection, schedule: Q01DX009 (ip), vehicle: saline with Tween-80 104 % of control | endpoint: median survival time, dose: 400.0 mg/kg/injection, schedule: Q01DX009 (ip), vehicle: saline with Tween-80 89 % of control

NC(=O)C[P+](c1ccccc1)(c1ccccc1)c1ccccc1
inactive: endpoint: mean survival time, dose: 25.0 mg/kg/injection, schedule: Q04DX003 (ip), vehicle: saline with Tween-80 109 % of control | [5] 114 % of control | [2] 102 % of control and 105 % of control

CN(Cc1ccccc1)CC1(CO)CC=CCC1 (stereo not drawn)
inactive: endpoint: mean survival time, dose: 75.0 mg/kg/injection, schedule: Q01DX001 (ip), vehicle: saline 97 % of control | endpoint: mean survival time, dose: 150.0 mg/kg/injection, schedule: Q01DX001 (ip), vehicle: saline 100 % of control

CCC(C)CCC/C=C/CC(=O)NC(CC(=O)O)C(=O)NC(C(=O)NC(CC(=O)O)C(=O)NCC(=O)NC(CC(=O)O)C(=O)NCC(=O)NC(C(=O)NC(C(=O)N1CCCC1C(=O)NC(C)C1NC(=O)C2CCCCN2C1=O)C(C)C)C(C)N)C(C)C(=O)O (stereo not drawn) (X4-D[ξAsp(βξ-Me)]DGDG[ξAbu(3ξ-NH2)]VP-X5; configuration not given here)
inactive: endpoint: mean survival time, dose: 100.0 mg/kg/injection, schedule: Q01DX009 (ip), vehicle: saline + alcohol 93 % of control | endpoint: mean survival time, dose: 200.0 mg/kg/injection, schedule: Q01DX009 (ip), vehicle: saline + alcohol 87 % of control

CCCN(CCC)CC(=O)Nc1c(Cl)cccc1Cl
inactive: endpoint: mean survival time, dose: 50.0 mg/kg/injection, schedule: Q01DX009 (ip), vehicle: saline sonified 101 % of control | endpoint: mean survival time, dose: 100.0 mg/kg/injection, schedule: Q01DX009 (ip), vehicle: saline sonified 96 % of control | [2] 105 % of control | [4] 105 % of control

C=CC1CC=CCC1 (stereo not drawn)
inactive: [3] 103 % of control | endpoint: mean survival time, dose: 200.0 mg/kg/injection, schedule: Q01DX009 (ip), vehicle: saline with Tween-80 106 % of control
